Assay results published in the supplement of paper PMC10627819.

Experiments:
Test in all cases: fitness (endpoint OD595 vs no drug) (fraction); higher = more growth
B. subtilis 168 = system: B. subtilis 168
Summary of the method: (§1)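 Volumes were 30 µl per well, or 55 µl for S. pneumoniae, in 384-well plates inoculated at OD595 0.01. Media were TSB, LB Lennox or CY at 37 °C, and OD595 was read every 30 min for 14 h with first-reading background subtraction. Fitness is the ratio of optical density at stationary-phase entry to the robust mean of no-drug controls. That ratio is capped at 1.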

S. aureus Newman = system: S. aureus Newman
Summary of the method: as §1

S. pneumoniae D39V = system: S. pneumoniae D39V
Summary of the method: as §1

O=C(O)[C@H]1/C(=C/CO)O[C@@H]2CC(=O)N21 [Clavulanic acid] + CC1=C(C(=O)O)N2C(=O)[C@@H](NC(=O)[C@H](N)c3ccccc3)[C@H]2SC1 [Cephalexin]
Conditions	fitness
B. subtilis 168, first compound 1.5 µg/mL, partner 0.125 µg/mL	0.904
B. subtilis 168, first compound 1.5 µg/mL, partner 0.25 µg/mL	0.927
B. subtilis 168, first compound 1.5 µg/mL, partner 0.5 µg/mL	0.889
B. subtilis 168, first compound 3 µg/mL, partner 0.125 µg/mL	0.878
B. subtilis 168, first compound 3 µg/mL, partner 0.25 µg/mL	0.818
B. subtilis 168, first compound 3 µg/mL, partner 0.5 µg/mL	0.793
B. subtilis 168, first compound 6 µg/mL, partner 0.125 µg/mL	0.772
B. subtilis 168, first compound 6 µg/mL, partner 0.25 µg/mL	0.76
B. subtilis 168, first compound 6 µg/mL, partner 0.5 µg/mL	0.723
S. pneumoniae D39V, first compound 0.5 µg/mL, partner 2 µg/mL	0.0193
S. pneumoniae D39V, first compound 0.5 µg/mL, partner 4 µg/mL	0.0187
S. pneumoniae D39V, first compound 1 µg/mL, partner 2 µg/mL	0.171
S. pneumoniae D39V, first compound 1 µg/mL, partner 4 µg/mL	0.203
S. pneumoniae D39V, first compound 2 µg/mL, partner 1 µg/mL	0.104
S. pneumoniae D39V, first compound 2 µg/mL, partner 2 µg/mL	0.0309
S. pneumoniae D39V, first compound 2 µg/mL, partner 4 µg/mL	0.045

one replicate
Conditions	fitness
B. subtilis 168, first compound 1.5 µg/mL, partner 1 µg/mL	0.929
B. subtilis 168, first compound 3 µg/mL, partner 1 µg/mL	0.848
B. subtilis 168, first compound 6 µg/mL, partner 1 µg/mL	0.867
S. aureus Newman, first compound 0.03125 µg/mL, partner 0.5 µg/mL	≥ 1
S. aureus Newman, first compound 0.03125 µg/mL, partner 1 µg/mL	≥ 1
S. aureus Newman, first compound 0.03125 µg/mL, partner 2 µg/mL	≥ 1
S. aureus Newman, first compound 0.0625 µg/mL, partner 0.5 µg/mL	0.958
S. aureus Newman, first compound 0.0625 µg/mL, partner 1 µg/mL	0.986
S. aureus Newman, first compound 0.0625 µg/mL, partner 2 µg/mL	≥ 1
S. aureus Newman, first compound 0.125 µg/mL, partner 0.5 µg/mL	0.897
S. aureus Newman, first compound 0.125 µg/mL, partner 1 µg/mL	0.913
S. aureus Newman, first compound 0.125 µg/mL, partner 2 µg/mL	0.919
S. pneumoniae D39V, first compound 0.5 µg/mL, partner 0.125 µg/mL	0.945
S. pneumoniae D39V, first compound 0.5 µg/mL, partner 0.25 µg/mL	0.957
S. pneumoniae D39V, first compound 0.5 µg/mL, partner 0.5 µg/mL	0.941
S. pneumoniae D39V, first compound 1 µg/mL, partner 0.125 µg/mL	0.881
S. pneumoniae D39V, first compound 1 µg/mL, partner 0.25 µg/mL	0.903
S. pneumoniae D39V, first compound 1 µg/mL, partner 0.5 µg/mL	0.944
S. pneumoniae D39V, first compound 2 µg/mL, partner 0.125 µg/mL	0.772
S. pneumoniae D39V, first compound 2 µg/mL, partner 0.25 µg/mL	0.789
S. pneumoniae D39V, first compound 2 µg/mL, partner 0.5 µg/mL	0.765

O=C(O)[C@H]1/C(=C/CO)O[C@@H]2CC(=O)N21 [Clavulanic acid] + CCN(CC)CCOC(=O)c1ccc(N)cc1 [Procaine]
fitness
Conditions	first compound 0.5 µg/mL	first compound 1 µg/mL	first compound 1.5 µg/mL	first compound 2 µg/mL	first compound 3 µg/mL	first compound 6 µg/mL
B. subtilis 168, partner 85.5 µg/mL	–	–	0.876	–	0.839	0.746
B. subtilis 168, partner 171 µg/mL	–	–	0.92	–	0.831	0.739
B. subtilis 168, partner 342 µg/mL	–	–	0.902	–	0.795	0.672
S. pneumoniae D39V, partner 85.5 µg/mL	0.994	0.957	–	0.832	–	–
S. pneumoniae D39V, partner 171 µg/mL	≥ 1	0.977	–	0.912	–	–
S. pneumoniae D39V, partner 342 µg/mL	≥ 1	0.934	–	0.795	–	–

fitness, S. aureus Newman, one replicate
Conditions	first compound 0.03125 µg/mL	first compound 0.0625 µg/mL	first compound 0.125 µg/mL
partner 85.5 µg/mL	0.948	0.982	0.872
partner 171 µg/mL	0.929	≥ 1	0.852
partner 342 µg/mL	0.963	≥ 1	0.894

CNC(C)C1CCC(N)C(OC2C(N)CC(N)C(OC3OCC(C)(O)C(NC)C3O)C2O)O1 (centres undefined) [Gentamicin] + CC1=C(C(=O)O)N2C(=O)[C@@H](NC(=O)[C@H](N)c3ccccc3)[C@H]2SC1 [Cephalexin]
main component drawn
Conditions	fitness
B. subtilis 168, first compound 0.0625 µg/mL, partner 0.125 µg/mL	0.852
B. subtilis 168, first compound 0.0625 µg/mL, partner 0.25 µg/mL	0.938
B. subtilis 168, first compound 0.0625 µg/mL, partner 0.5 µg/mL	0.882
B. subtilis 168, first compound 0.125 µg/mL, partner 0.125 µg/mL	0.0869
B. subtilis 168, first compound 0.25 µg/mL, partner 0.125 µg/mL	0.0552
B. subtilis 168, first compound 0.25 µg/mL, partner 0.25 µg/mL	0.0555
B. subtilis 168, first compound 0.25 µg/mL, partner 0.5 µg/mL	0.0535
S. aureus Newman, first compound 0.5 µg/mL, partner 0.25 µg/mL	0.968
S. aureus Newman, first compound 0.5 µg/mL, partner 0.5 µg/mL	0.964
S. aureus Newman, first compound 0.5 µg/mL, partner 1 µg/mL	0.922
S. aureus Newman, first compound 1 µg/mL, partner 0.25 µg/mL	≥ 1
S. aureus Newman, first compound 1 µg/mL, partner 0.5 µg/mL	0.986
S. aureus Newman, first compound 1 µg/mL, partner 1 µg/mL	≥ 1
S. aureus Newman, first compound 2 µg/mL, partner 0.25 µg/mL	0.993
S. aureus Newman, first compound 2 µg/mL, partner 0.5 µg/mL	≥ 1
S. aureus Newman, first compound 2 µg/mL, partner 1 µg/mL	≥ 1
S. pneumoniae D39V, first compound 2 µg/mL, partner 2 µg/mL	0.0158
S. pneumoniae D39V, first compound 2 µg/mL, partner 4 µg/mL	0.0234
S. pneumoniae D39V, first compound 4 µg/mL, partner 1 µg/mL	0.424
S. pneumoniae D39V, first compound 4 µg/mL, partner 2 µg/mL	0.0331
S. pneumoniae D39V, first compound 4 µg/mL, partner 4 µg/mL	0.026
S. pneumoniae D39V, first compound 8 µg/mL, partner 1 µg/mL	0.401
S. pneumoniae D39V, first compound 8 µg/mL, partner 2 µg/mL	0.0415
S. pneumoniae D39V, first compound 8 µg/mL, partner 4 µg/mL	0.0404

fitness, one replicate, main component drawn
Conditions	partner 0.125 µg/mL	partner 0.25 µg/mL	partner 0.5 µg/mL	partner 1 µg/mL
B. subtilis 168, first compound 0.0625 µg/mL	–	–	–	0.986
B. subtilis 168, first compound 0.125 µg/mL	–	–	–	0.941
B. subtilis 168, first compound 0.25 µg/mL	–	–	–	0.418
S. aureus Newman, first compound 0.375 µg/mL	–	≥ 1	≥ 1	≥ 1
S. aureus Newman, first compound 0.75 µg/mL	–	≥ 1	≥ 1	≥ 1
S. aureus Newman, first compound 1.5 µg/mL	–	0.986	0.877	0.963
S. pneumoniae D39V, first compound 2 µg/mL	0.962	0.96	0.947	–
S. pneumoniae D39V, first compound 4 µg/mL	0.993	0.955	≥ 1	–
S. pneumoniae D39V, first compound 8 µg/mL	0.93	0.965	0.956	–

O=C(O)[C@H]1/C(=C/CO)O[C@@H]2CC(=O)N21 [Clavulanic acid] + CN[C@H](CC(C)C)C(=O)N[C@H]1C(=O)N[C@@H](CC(N)=O)C(=O)N[C@H]2C(=O)N[C@H]3C(=O)N[C@H](C(=O)N[C@H](C(=O)O)c4cc(O)cc(O)c4-c4cc3ccc4O)[C@H](O)c3ccc(c(Cl)c3)Oc3cc2cc(c3O[C@@H]2O[C@H](CO)[C@@H](O)[C@H](O)[C@H]2O[C@H]2C[C@](C)(N)[C@H](O)[C@H](C)O2)Oc2ccc(cc2Cl)[C@H]1O [Vancomycin]
fitness, S. aureus Newman, one replicate
Conditions	first compound 0.03125 µg/mL	first compound 0.0625 µg/mL	first compound 0.125 µg/mL
partner 0.1875 µg/mL	0.974	≥ 1	0.936
partner 0.375 µg/mL	0.975	≥ 1	0.923
partner 0.75 µg/mL	0.974	≥ 1	0.981

fitness, S. pneumoniae D39V
Conditions	partner 0.03125 µg/mL	partner 0.0625 µg/mL	partner 0.125 µg/mL	partner 0.25 µg/mL	partner 0.5 µg/mL
first compound 0.5 µg/mL	0.984	0.917	0.875	0.0377	0.0441
first compound 1 µg/mL	0.907	0.889	0.868	0.189	0.179
first compound 2 µg/mL	0.811	0.779	0.751	0.0611	0.078

O=C(O)[C@H]1/C(=C/CO)O[C@@H]2CC(=O)N21 [Clavulanic acid] + CN(N=O)C(=O)N[C@@H](C=O)[C@@H](O)[C@H](O)[C@H](O)CO [Streptozotocin]
fitness
Conditions	first compound 0.5 µg/mL	first compound 1 µg/mL	first compound 1.5 µg/mL	first compound 2 µg/mL	first compound 3 µg/mL	first compound 6 µg/mL
B. subtilis 168, partner 0.15 µg/mL	–	–	0.914	–	0.861	0.779
B. subtilis 168, partner 0.3 µg/mL	–	–	0.898	–	0.848	0.772
B. subtilis 168, partner 0.6 µg/mL	–	–	0.911	–	0.929	0.75
S. pneumoniae D39V, partner 1.2 µg/mL	0.937	0.882	–	0.784	–	–
S. pneumoniae D39V, partner 2.4 µg/mL	0.979	0.947	–	0.876	–	–
S. pneumoniae D39V, partner 4.8 µg/mL	0.944	0.864	–	0.747	–	–

fitness, S. aureus Newman, one replicate
Conditions	first compound 0.03125 µg/mL	first compound 0.0625 µg/mL	first compound 0.125 µg/mL
partner 0.15 µg/mL	0.937	0.977	0.923
partner 0.3 µg/mL	0.91	0.911	0.865
partner 0.6 µg/mL	0.667	0.761	0.655

O=C(O)[C@H]1/C(=C/CO)O[C@@H]2CC(=O)N21 [Clavulanic acid] + C[C@@H]1O[C@@H]1P(=O)(O)O [Fosfomycin]
fitness
Conditions	first compound 0.5 µg/mL	first compound 1 µg/mL	first compound 1.5 µg/mL	first compound 2 µg/mL	first compound 3 µg/mL	first compound 6 µg/mL
B. subtilis 168, partner 1.562 µg/mL	–	–	0.691	–	0.644	0.559
B. subtilis 168, partner 3.124 µg/mL	–	–	0.564	–	0.529	0.453
B. subtilis 168, partner 6.248 µg/mL	–	–	0.478	–	0.416	0.301
S. pneumoniae D39V, partner 1.25 µg/mL	0.953	0.905	–	0.821	–	–
S. pneumoniae D39V, partner 2.5 µg/mL	0.933	0.872	–	0.802	–	–

fitness, S. aureus Newman, one replicate
Conditions	first compound 0.03125 µg/mL	first compound 0.0625 µg/mL	first compound 0.125 µg/mL
partner 0.781 µg/mL	0.96	0.885	0.841
partner 1.562 µg/mL	0.679	0.626	0.598
partner 3.124 µg/mL	0.396	0.382	0.349
